Measurements: US20230271949A1, “GLP-1R MODULATING COMPOUNDS” (ASCLETIS BIOSCIENCE CO., LTD., priority 2022, published 2023)

Target: GLP-1R (Homo sapiens, UniProt P43220)
Assay: GLP-1R agonist cAMP stimulation assay (HTRF cAMP)
Type: cell-based
Conditions: HEK293 cell line expressing GLP-1 target; HTRF cAMP agonist mode, 30 min at RT
Description: cAMP Detection Kit, Cisbio (Cat #62AM4PEJ)
The cell line was constructed by WuXi.
2. Methods • a) The compound source plate preparation: • The reference 7-37 was diluted from 500 nM, 4-fold, 10 points in DMSO using Bravo. The compounds were diluted from […], 3-fold, 10 points in DMSO using Bravo. • b) Transfer of compounds: • 1) Use Echo transfer 100 nL cpd to the OptiPlate-384 plate. • 2) Spin the plates at 1000 rpm for 5 sec. • c) Cell suspension preparation: • 1) Thaw 1 vial of GLP-1 cells rapidly in 37° C. water bath. • 2) Transfer cell suspension into 10 ml of HBSS in a 15 ml conical tube. • 3) Centrifuge cells at 1000 rpm for 5 min at room temperature to pellet cells • 4) Gently aspirate supernatant being careful not to aspirate cells. • 5) Flick pellet to loose cells and re-suspend the cell pellet in 10 ml HBSS. Use a sterile pipette to pipette up and down to dislodge clumps. • 6) Count cells for concentration and to determine cell viability on Vi-cell. • 7) Re-suspend the GLP-1 cells in assay buffer at a concentration of 1.0×E5/mL cells. • 8) Transfer 10 μL GLP-1 cells to OptiPlate-384 plate. • d) HTRF cAMP Assay for agonist: • 1) Incubate the plate at RT for 30 min before adding the detection reagent. • 2) Add 10 μL each of detection reagent using Electric Multiple Channel Pipette. • 3) Cover the 384 plate with TopSeal-A film and incubate for 60 minutes at room temperature. • Remove the TopSeal-A, read on EnVision.
Create a new log (Inhibitor) vs response—Variable slope mode in Prism5.0 software, substitute the standard curve concentration (x) and its corresponding 665/615 data (y) into the model, convert the standard curve concentration (abscissa) by x=log(x), and make the standard curve through the converted xy.
Transform the data of 665/615 in the whole plate into a column of data, substitute it into y in the table of standard curve concentration (x) and 665/615 data (y), copy the x (interpolatedx) corresponding to automatic conversion by the software into a table, convert it into cAMP level by the formula x=10^(x), and reset the data into 384 distribution.
% Activity=(cAMP level−LC)/(HC−LC)*100% • Z factor: 1-3*(STD_HC+[…])/(HC-LC) • Assay Window: HC/LC • LC: The average cAMP level of adding DMSO wells • HC: The average cAMP level of adding the top concentration of reference compounds wells.
Create a new […] in Prism5.0 software, substitute the sample concentration (x) and its corresponding % Activity data (y) into the model, convert the standard curve concentration (abscissa) to x=log(x), and make the sample curve through the converted xy.

Sequence of GLP-1R (P43220 24-463): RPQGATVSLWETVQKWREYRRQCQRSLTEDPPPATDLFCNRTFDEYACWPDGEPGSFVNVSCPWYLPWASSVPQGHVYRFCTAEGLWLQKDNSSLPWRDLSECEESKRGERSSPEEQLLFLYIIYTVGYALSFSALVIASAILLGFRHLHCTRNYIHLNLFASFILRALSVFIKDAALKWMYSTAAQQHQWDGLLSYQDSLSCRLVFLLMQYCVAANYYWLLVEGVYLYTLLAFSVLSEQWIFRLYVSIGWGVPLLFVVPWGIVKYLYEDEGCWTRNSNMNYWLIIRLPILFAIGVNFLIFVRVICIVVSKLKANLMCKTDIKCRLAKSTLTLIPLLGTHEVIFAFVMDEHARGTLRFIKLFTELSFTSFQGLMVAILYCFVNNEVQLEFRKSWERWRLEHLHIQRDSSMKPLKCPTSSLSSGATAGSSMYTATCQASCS

For `Cc1cc(C(=O)Nc2ccc3c(c2)nc(CN2CC=C(c4cccc(OCc5ccc(C#N)cc5F)n4)CC2)n3C[C@@H]2CCO2)cc2c(C3CC3)n[nH]c12` [Compound 233], which EC50 is on record?
Its EC50 is 0.92 nM.

For `Cn1c(=O)[nH]c2ccc(NC(=O)c3ccc4c(c3)nc(CN3CCC(c5cccc(OCc6ccc(Cl)cc6F)n5)CC3)n4C[C@@H]3CCO3)cc21` [Compound 91], which EC50 is on record?
The EC50 was 26.2 nM.

For `Cc1n[nH]c2c(C3CC3)cc(NC(=O)c3ccc4c(c3)nc(CN3CC=C(c5cccc(OCc6ccc(Cl)cc6F)n5)CC3)n4C[C@@H]3CCO3)cc12` [Compound 171], which EC50 is on record?
The EC50 was 9.53 nM.

With `COCCn1c(Cc2ccc(-c3cccc(OCc4ccc(C#N)cc4F)n3)cc2)nc2cc(NC(=O)CCc3ccccc3O)ccc21` [Compound 13] as the compound, how does the EC50 read?
Its EC50 is 189 nM.

For `COCCn1c(CN2CCC(c3cccc(OCc4ccc(Cl)cc4F)n3)CC2)nc2cc(C(=O)NCCc3ccccc3O)ccc21` [Compound 18], which EC50 is on record?
Its EC50 is 411 nM.

With `Cc1n[nH]c2c(F)cc(NC(=O)c3ccc4c(c3)nc(CN3CCC(c5cccc(OCc6ccc(C#N)c7c6ncn7C)n5)CC3)n4C[C@@H]3CCO3)cc12` [Compound 379] as the compound, how does the EC50 read?
Its EC50 is 3.12 nM.

`O=C(NCc1ccc2[nH][nH]c(=O)c2c1)c1ccc2c(c1)nc(CN1CCC(c3cccc(OCc4ccc(Cl)cc4F)n3)CC1)n2C[C@@H]1CCO1` [Compound 76] was tested. Which EC50 did it give?
Its EC50 is 9.04 nM.

For `N#Cc1ccc(COc2cccc(C3CCN(Cc4nc5cc(C(=O)NCC(=O)N6C[C@@H](F)C[C@H]6C(=O)O)ccc5n4C[C@@H]4CCO4)CC3)n2)c(F)c1` [Compound 44], which EC50 is on record?
The EC50 was 4.36 nM.

With `Cc1cc(NC(=O)c2ccc3c(n2)nc(CN2CC=C(c4cccc(OCc5ccc(Cl)cc5F)n4)CC2)n3C[C@@H]2CCO2)cc2cn[nH]c12` [Compound 137] as the compound, how does the EC50 read?
Its EC50 is 5.49 nM.

For `Cc1n[nH]c2c(C(F)(F)F)cc(C(=O)Nc3ccc4c(c3)nc(CN3CC=C(c5cccc(OCc6ccc(Cl)cn6)n5)CC3)n4C[C@@H]3CCO3)cc12` [Compound 213], which EC50 is on record?
Its EC50 is 0.78 nM.

With `Cc1n[nH]c2c(F)cc(C(=O)Nc3ccc4c(c3)nc(CN3CC=C(c5cccc(OCc6cc(F)c(C#N)s6)n5)CC3)n4C[C@@H]3CCO3)cc12` [Compound 362] as the compound, how does the EC50 read?
Its EC50 is 0.85 nM.

`O=C(Nc1ccc2c(c1)nc(CN1CC=C(c3cccc(OCc4ccc(Cl)cc4F)n3)CC1)n2C[C@@H]1CCO1)c1ccc2[nH]nc(C3CC3)c2c1` [Compound 216] was tested. Which EC50 did it give?
The EC50 was 0.82 nM.

How did the EC50 turn out when `O=C(Nc1ccc2c(c1)nc(C(F)(F)N1CC=C(c3cccc(OCc4ccc(Cl)cc4F)n3)CC1)n2C[C@@H]1CCO1)c1ccc2[nH]nc(C3CC3)c2c1` [Compound 258] was run?
The EC50 was 31.8 nM.

With `Cc1cc(NC(=O)c2ccc3c(c2)nc(CN2CCC(c4cccc(OCc5cc(F)c(C#N)s5)n4)CC2)n3C[C@@H]2CCO2)cc2c(C(F)(F)F)n[nH]c12` [Compound 377] as the compound, how does the EC50 read?
The EC50 was 3.41 nM.

With `O=C(Nc1ccc2c(c1)nc(C1CC13CCC(c1cccc(OCc4ccc(Cl)cc4F)n1)CC3)n2CC1CCO1)c1ccc2[nH]nc(C3CC3)c2c1` (centres unmarked) [Compound 252] as the compound, how does the EC50 read?
The EC50 was 1.03 nM.

Which EC50 does the source give for `O=C(Nc1ccc2ncsc2c1)c1ccc2c(c1)nc(CN1CCC(c3cccc(OCc4ccc(Cl)cc4F)n3)CC1)n2C[C@@H]1CCO1` [Compound 98] here?
Its EC50 is 16.9 nM.

How did the EC50 turn out when `Cc1cc2c(Cl)ccc(COc3cccc(C4=CCN(Cc5nc6cc(C(=O)Nc7cc(C)c8[nH]nc(C(F)F)c8c7)ccc6n5C[C@@H]5CCO5)CC4)n3)c2o1` [Compound 349] was run?
Its EC50 is 1.61 nM.

Which EC50 does the source give for `Cc1cc(-c2cn(-c3ccc4c(c3)nc(CN3CC=C(c5cccc(OCc6ccc(Cl)cc6F)n5)CC3)n4C[C@@H]3CCO3)cn2)[nH]n1` [Compound 397] here?
Its EC50 is 127 nM.

`Cc1cc(NC(=O)c2ccc3c(c2)nc(CN2CC=C(c4cccc(OCc5ccc(Cl)cc5F)n4)CC2)n3C[C@@H]2CCO2)c(C)c2c(C)n[nH]c12` [Compound 173] was tested. Which EC50 did it give?
The EC50 was 31.5 nM.

How did the EC50 turn out when `O=C(Nc1ccc2[nH]nc(C(F)(F)F)c2c1)c1ccc2c(c1)nc(CN1CC=C(c3cccc(OCc4ccc(Cl)cc4F)n3)CC1)n2C[C@@H]1CCO1` [Compound 161] was run?
The EC50 was 0.87 nM.

Which EC50 does the source give for `O=C(Nc1ccn2nccc2c1)c1ccc2c(c1)nc(CN1CCC(c3cccc(OCc4ccc(Cl)cc4F)n3)CC1)n2CC1CCO1` (centres unmarked) [Compound 96] here?
The EC50 was 74.3 nM.

`Cc1cc(NC(=O)c2ccc3c(c2)nc(CN2CC=C(c4cccc5c4OC(C)(c4ccc(Cl)cc4F)O5)CC2)n3CC2CCO2)cc2c(C(F)(F)F)n[nH]c12` (centres unmarked) [Compound 296] was tested. Which EC50 did it give?
The EC50 was 1.92 nM.

With `O=C(Nc1ccc2c(c1)nc(CN1CC=C(c3cccc(OCc4ccc(Cl)cc4F)n3)CC1)n2C[C@@H]1CCO1)c1cc(F)c2c(c1)C1(CC1)C(=O)N2` [Compound 208] as the compound, how does the EC50 read?
Its EC50 is 0.25 nM.

`COCCn1c(CN2CCC(c3cccc(OCc4ccc(Cl)cc4F)n3)CC2)nc2cc(C(=O)NCCc3c[nH]c4ccc(O)cc34)ccc21` [Compound 17] was tested. Which EC50 did it give?
Its EC50 is 404 nM.

With `Cc1cc(C(=O)Nc2ccc3c(c2)nc(CN2CCC(c4cccc5c4OC(C)(c4ccc(Cl)cc4F)O5)CC2)n3C[C@@H]2CCO2)cc2c1NC(=O)C21CC1` (some centres unmarked) [Compound 343] as the compound, how does the EC50 read?
The EC50 was 0.54 nM.

Which EC50 does the source give for `Cc1cc2c(C#N)ccc(COc3cccc(C4=CCN(Cc5nc6cc(NC(=O)c7ccc8[nH]nc(C(F)(F)F)c8c7)ccc6n5C[C@@H]5CCO5)CC4)n3)c2o1` [Compound 359] here?
The EC50 was 1.62 nM.

Which EC50 does the source give for `O=C(NCC(=O)N1C[C@@H](O)C[C@H]1C(=O)O)c1ccc2c(c1)nc(CN1CCC(c3cccc(OCc4ccc(Cl)cc4F)n3)CC1)n2C[C@@H]1CCO1` [Compound 45] here?
The EC50 was 1.39 nM.

How did the EC50 turn out when `Fc1cc(Cl)ccc1COc1cccc(C2=CCN(Cc3nc4cc(-c5nc(-c6c[nH]c(C(F)(F)F)n6)co5)ccc4n3C[C@@H]3CCO3)CC2)n1` [Compound 399] was run?
Its EC50 is over 10000 nM.

How did the EC50 turn out when `CCc1n[nH]c2ccc(C(=O)Nc3ccc4c(c3)nc(C3CC35CCN(c3cccc(OCc6ccc(Cl)cc6F)n3)CC5)n4CC3CCO3)cc12` (centres unmarked) [Compound 250] was run?
Its EC50 is 1.49 nM.

With `Cc1cc(NC(=O)c2ccc3c(c2)nc(CN2CC=C(c4cccc(OCc5ccc(Cl)cc5F)n4)CC2)n3C[C@@H]2CCO2)cc2nn[nH]c12` [Compound 167] as the compound, how does the EC50 read?
Its EC50 is 0.68 nM.

With `N#Cc1ccc(COc2cccc(C3=CCN(Cc4nc5cc(C(=O)Nc6cc(F)c7[nH]ncc7c6)ccc5n4C[C@@H]4CCO4)CC3)n2)c(F)c1` [Compound 180] as the compound, how does the EC50 read?
Its EC50 is 1.06 nM.

`Cc1n[nH]c2c(C(F)F)cc(NC(=O)c3ccc4c(c3)nc(CN3CC=C(c5cccc(OCc6ccc(Cl)cc6F)n5)CC3)n4C[C@@H]3CCO3)cc12` [Compound 172] was tested. Which EC50 did it give?
The EC50 was 1.63 nM.

`O=C(Nc1ccn2nccc2c1)c1ccc2c(c1)nc(CN1CC=C(c3cccc(OCc4ccc(Cl)cc4F)n3)CC1)n2CC1CCO1` (centres unmarked) [Compound 148] was tested. Which EC50 did it give?
Its EC50 is 21.1 nM.

With `Cc1cc2c(C#N)ccc(COc3cccc(C4=CCN(Cc5nc6cc(C(=O)Nc7cc(F)c8[nH]nc(C)c8c7)ccc6n5C[C@@H]5CCO5)CC4)n3)c2s1` [Compound 350] as the compound, how does the EC50 read?
Its EC50 is 0.51 nM.

How did the EC50 turn out when `Cc1n[nH]c2c(C)cc(NC(=O)c3ccc4c(c3)nc(CN3CC=C(c5cccc(OCc6ccc(C#N)cc6F)n5)CC3)n4C[C@@H]3CCO3)cc12` [Compound 181] was run?
The EC50 was 0.21 nM.

`CC1(c2ccc(Cl)cc2F)Oc2cccc(C3=CCN(Cc4nc5cc(C(=O)Nc6ccc7[nH]nc(F)c7c6)ccc5n4CC4CCO4)CC3)c2O1` (centres unmarked) [Compound 328] was tested. Which EC50 did it give?
The EC50 was 12.7 nM.

For `Cc1n[nH]c2c(C(F)(F)F)cc(NC(=O)c3ccc4c(c3)nc(CN3CC=C(c5cccc(OCc6ccc(Cl)cc6F)n5)CC3)n4C[C@@H]3CCO3)cc12` [Compound 156], which EC50 is on record?
The EC50 was 0.68 nM.

With `COCCn1c(CN2CCC(c3cccc(OCc4ccc(Cl)cc4F)n3)CC2)nc2cc(C(=O)NCc3ccc(O)c(C(=O)OC)c3)ccc21` [Compound 36] as the compound, how does the EC50 read?
The EC50 was over 10000 nM.

For `Cc1n[nH]c2ccc(C(=O)Nc3ccc4c(c3)nc(C(F)(F)N3CC=C(c5cccc(OCc6ccc(Cl)cc6F)n5)CC3)n4C[C@@H]3CCO3)cc12` [Compound 257], which EC50 is on record?
Its EC50 is 15.1 nM.

`O=C(Nc1ccc2[nH]c(=O)[nH]c2n1)c1ccc2c(c1)nc(CN1CCC(c3cccc(OCc4ccc(Cl)cc4F)n3)CC1)n2C[C@@H]1CCO1` [Compound 93] was tested. Which EC50 did it give?
Its EC50 is 29.8 nM.

`COCCn1c(CN2CCC(c3cccc(OCc4ccc(Cl)cc4F)n3)CC2)nc2cc(C(=O)NCCc3cccc(O)c3)ccc21` [Compound 19] was tested. Which EC50 did it give?
Its EC50 is 176 nM.

With `O=C(NCc1ccc(O)cc1)c1ccc2c(c1)nc(CN1CCC(c3cccc(OCc4ccc(Cl)cc4F)n3)CC1)n2C[C@@H]1CCO1` [Compound 24] as the compound, how does the EC50 read?
Its EC50 is 90.1 nM.

For `Cc1n[nH]c2ccc(C(=O)Nc3ccc4c(c3)nc(Cc3ccc(-c5cccc6c5OC(C)(c5ccc(Cl)cc5F)O6)s3)n4C[C@@H]3CCO3)cc12` (some centres unmarked) [Compound 322], which EC50 is on record?
The EC50 was 31.9 nM.

With `Cc1n[nH]c2ncc(NC(=O)c3ccc4c(c3)nc(CN3CC=C(c5cccc(OCc6ccc(Cl)cc6F)n5)CC3)n4C[C@@H]3CCO3)cc12` [Compound 189] as the compound, how does the EC50 read?
Its EC50 is 3.54 nM.
